Laboratory results as given in patent publication US20120077737A1, “HEPATITIS C INHIBITOR COMPOUNDS” (priority 2009, published 2012).
Where two headings read alike, the source gives them in different places.

Legend:
[1] = test system: HCVPV1b subgenomic replicon (wild type 1b); test: HCV replicon RNA replication assay, wild type 1b; format: cell-based, HCV genotype 1b (Con-1), Huh-7 cells; conditions: Hepatitis C virus, read-out: WT 1b Ec50
[2] = test system: HCVPV1a subgenomic replicon (wild type 1a); test: HCV replicon RNA replication assay, wild type 1a; format: cell-based, HCV genotype 1a (strain H77), Huh-7 cells; conditions: Hepatitis C virus, read-out: WT 1a Ec50
[3] = test system: HCV genotype 1b subgenomic replicon with NS3 resistance mutation D168V; test: HCV replicon RNA replication assay, D168V 1b; format: cell-based, HCV genotype 1b (Con-1), Huh-7 cells; conditions: Hepatitis C virus, read-out: D168V 1b Ec50 (nM)
[4] = test system: HCV genotype 1a subgenomic replicon with NS3 resistance mutation R155K; test: HCV replicon RNA replication assay, R155K 1a; format: cell-based, HCV genotype 1a (strain H77), Huh-7 cells; conditions: Hepatitis C virus, read-out: R155K 1a Ec50 (nM)
[5] = test system: HCV genotype 1a subgenomic replicon with NS3 resistance mutation D168V; test: HCV replicon RNA replication assay, D168V 1a; format: cell-based, HCV genotype 1a (strain H77), Huh-7 cells; conditions: Hepatitis C virus, read-out: D168V 1a Ec50 (nM)
[6] = Table 1, luciferase replicon, Huh-7, 72 h
[7] = Table 2, clinical comparators, wildtype genotype 1b
[8] = Table 2, clinical comparators, wildtype genotype 1a

SMILES	EC50 [1, 6] [nM]	EC50 [2, 6] [nM]	EC50 ([3]; Huh-7, 72 h) [nM]	EC50 ([4]; Huh-7, 72 h) [nM]	EC50 ([5]; Huh-7, 72 h) [nM]	EC50 [1, 7] [nM]	EC50 [2, 8] [nM]	EC50 [3] [nM]	EC50 [4] [nM]	EC50 [5] [nM]
Cc1c(Cl)ccc2c(O[C@@H]3C[C@H]4C(=O)N[C@]5(C(=O)NS(=O)(=O)C6(C)CC6)C[C@H]5/C=C\CCCCC[C@H](NC(=O)c5ccn(C)n5)C(=O)N4C3)cc(OC(C)C)nc12 [Compound 1003, (2R,6S,12Z,13aS,14aR,16aS)-2-{[7-chloro-8-methyl-2-(propan-2-yloxy)quinolin-4-yl]oxy}-N-[(1-methylcyclopropyl)sulfonyl]-6-{[(1-methyl-1H-pyrazol-3-yl)carbonyl]amino}-5,16-dioxo-1,2,3,6,7,8,9,10,11,13a,14,15,16,16a-tetradecahydrocyclopropa[e]pyrrolo[1,2-a][1,4]diazacyclopentadecine-14a(5H)-carboxamide]	0.21	0.24	0.12	7.7	6.9					
CNC(=O)Cn1ccc(C(=O)N[C@H]2CCCCC/C=C\[C@@H]3C[C@@]3(C(=O)NS(=O)(=O)C3CC3)NC(=O)[C@@H]3C[C@@H](Oc4cc(OC(C)C)nc5c(C)c(OC)ccc45)CN3C2=O)n1 [Compound 1018, (2R,6S,12Z,13aS,14aR,16aS)-N-(cyclopropylsulfonyl)-2-{[7-methoxy-8-methyl-2-(propan-2-yloxy)quinolin-4-yl]oxy}-6-[({1-[2-(methylamino)-2-oxoethyl]-1H-pyrazol-3-yl}carbonyl)amino]-5,16-dioxo-1,2,3,6,7,8,9,10,11,13a,14,15,16,16a-tetradecahydrocyclopropa[e]pyrrolo[1,2-a][1,4]diazacyclopentadecine-14a(5H)-carboxamide]	3.3	2.7	2.4	4.2	9.8					
Cc1c(O)ccc2c(O[C@@H]3C[C@H]4C(=O)N[C@]5(C(=O)NS(=O)(=O)C6(C)CC6)C[C@H]5/C=C\CCCCC[C@H](NC(=O)c5ccn(C)n5)C(=O)N4C3)cc(OC(C)C)nc12 [Compound 1015, (2R,6S,12Z,13aS,14aR,16aS)-2-{[7-hydroxy-8-methyl-2-(propan-2-yloxy)quinolin-4-yl]oxy}-N-[(1-methylcyclopropyl)sulfonyl]-6-{[(1-methyl-1H-pyrazol-3-yl)carbonyl]amino}-5,16-dioxo-1,2,3,6,7,8,9,10,11,13a,14,15,16,16a-tetradecahydrocyclopropa[e]pyrrolo[1,2-a][1,4]diazacyclopentadecine-14a(5H)-carboxamide]	1.3	0.96	0.96	0.95	6.9					
CC(C)(C)OC(=O)N[C@H]1CCCCC/C=C\[C@@H]2C[C@@]2(C(=O)NS(=O)(=O)C2CC2)NC(=O)[C@@H]2C[C@@H](OC(=O)N3Cc4cccc(F)c4C3)CN2C1=O [reference compound]						5.4	2.1	120	690	180
COc1ccc2c(O[C@@H]3C[C@H]4C(=O)N[C@]5(C(=O)NS(=O)(=O)C6(C)CC6)C[C@H]5/C=C\CCCCC[C@H](NC(=O)c5ccn(C)n5)C(=O)N4C3)cc(OC(C)C)nc2c1C [Compound 1007, (2R,6S,12Z,13aS,14aR,16aS)-2-{[7-methoxy-8-methyl-2-(propan-2-yloxy)quinolin-4-yl]oxy}-N-[(1-methylcyclopropyl)sulfonyl]-6-{[(1-methyl-1H-pyrazol-3-yl)carbonyl]amino}-5,16-dioxo-1,2,3,6,7,8,9,10,11,13a,14,15,16,16a-tetradecahydrocyclopropa[e]pyrrolo[1,2-a][1,4]diazacyclopentadecine-14a(5H)-carboxamide]	0.2	0.25	0.18	1.7	4.5					
Cc1ccc2c(O[C@@H]3C[C@H]4C(=O)N[C@]5(C(=O)NS(=O)(=O)C6(C)CC6)C[C@H]5/C=C\CCCCC[C@H](NC(=O)c5ccn(C)n5)C(=O)N4C3)cc(OC(C)C)nc2c1Br [Compound 1024, (2R,6S,12Z,13aS,14aR,16aS)-2-{[8-bromo-7-methyl-2-(propan-2-yloxy)quinolin-4-yl]oxy}-N-[(1-methylcyclopropyl)sulfonyl]-6-{[(1-methyl-1H-pyrazol-3-yl)carbonyl]amino}-5,16-dioxo-1,2,3,6,7,8,9,10,11,13a,14,15,16,16a-tetradecahydrocyclopropa[e]pyrrolo[1,2-a][1,4]diazacyclopentadecine-14a(5H)-carboxamide]	0.13	0.1	0.09	9.3	1.9					
CNC(=O)Cn1ccc(C(=O)N[C@H]2CCCCC/C=C\[C@@H]3C[C@@]3(C(=O)NS(=O)(=O)C3(C)CC3)NC(=O)[C@@H]3C[C@@H](Oc4cc(OC(C)C)nc5c(C)c(OC)ccc45)CN3C2=O)n1 [Compound 1019, (2R,6S,12Z,13aS,14aR,16aS)-2-{[7-methoxy-8-methyl-2-(propan-2-yloxy)quinolin-4-yl]oxy}-6-[({1-[2-(methylamino)-2-oxoethyl]-1H-pyrazol-3-yl}carbonyl)amino]-N-[(1-methylcyclopropyl)sulfonyl]-5,16-dioxo-1,2,3,6,7,8,9,10,11,13a,14,15,16,16a-tetradecahydrocyclopropa[e]pyrrolo[1,2-a][1,4]diazacyclopentadecine-14a(5H)-carboxamide]	1.5	2	1.8	1.6	5.4					
COc1ccc2c(O[C@@H]3C[C@H]4C(=O)N[C@]5(C(=O)NS(=O)(=O)C6(C)CC6)C[C@H]5/C=C\CCCCC[C@H](NC(=O)c5ccn(CCF)n5)C(=O)N4C3)cc(OC(C)C)nc2c1C [Compound 1004, (2R,6S,12Z,13aS,14aR,16aS)-6-({[1-(2-fluoroethyl)-1H-pyrazol-3-yl]carbonyl}amino)-2-{[7-methoxy-8-methyl-2-(propan-2-yloxy)quinolin-4-yl]oxy}-N-[(1-methylcyclopropyl)sulfonyl]-5,16-dioxo-1,2,3,6,7,8,9,10,11,13a,14,15,16,16a-tetradecahydrocyclopropa[e]pyrrolo[1,2-a][1,4]diazacyclopentadecine-14a(5H)-carboxamide]	0.27	0.24	0.15	1.3	1.8					
COc1ccc2c(O[C@@H]3C[C@H]4C(=O)N[C@]5(C(=O)NS(=O)(=O)C6(C)CC6)C[C@H]5/C=C\CCCCC[C@H](NC(=O)c5ccc(C(C)(C)O)s5)C(=O)N4C3)cc(OC(C)C)nc2c1C [Compound 1020, (2R,6S,12Z,13aS,14aR,16aS)-6-({[5-(2-hydroxypropan-2-yl)thiophen-2-yl]carbonyl}amino)-2-{[7-methoxy-8-methyl-2-(propan-2-yloxy)quinolin-4-yl]oxy}-N-[(1-methylcyclopropyl)sulfonyl]-5,16-dioxo-1,2,3,6,7,8,9,10,11,13a,14,15,16,16a-tetradecahydrocyclopropa[e]pyrrolo[1,2-a][1,4]diazacyclopentadecine-14a(5H)-carboxamide]	0.66	0.86	0.39	2.4	3.7					
COc1ccc2c(O[C@@H]3C[C@H]4C(=O)N[C@]5(C(=O)NS(=O)(=O)C6(C)CC6)C[C@H]5/C=C\CCCCC[C@H](NC(=O)c5ccn(C)n5)C(=O)N4C3)cc(OCC(F)(F)F)nc2c1C [Compound 1029, (2R,6S,12Z,13aS,14aR,16aS)-2-{[7-methoxy-8-methyl-2-(2,2,2-trifluoroethoxy)quinolin-4-yl]oxy}-N-[(1-methylcyclopropyl)sulfonyl]-6-{[(1-methyl-1H-pyrazol-3-yl)carbonyl]amino}-5,16-dioxo-1,2,3,6,7,8,9,10,11,13a,14,15,16,16a-tetradecahydrocyclopropa[e]pyrrolo[1,2-a][1,4]diazacyclopentadecine-14a(5H)-carboxamide]			0.25	1.5	9.5					
COc1ccc2c(O[C@@H]3C[C@H]4C(=O)N[C@]5(C(=O)NS(=O)(=O)C6CC6)C[C@H]5/C=C\CCCCC[C@H](NC(=O)c5ccn(CC(F)(F)F)n5)C(=O)N4C3)cc(OC(C)C)nc2c1C [Compound 1012, (2R,6S,12Z,13aS,14aR,16aS)-N-(cyclopropylsulfonyl)-2-{[7-methoxy-8-methyl-2-(propan-2-yloxy)quinolin-4-yl]oxy}-5,16-dioxo-6-({[1-(2,2,2-trifluoroethyl)-1H-pyrazol-3-yl]carbonyl}amino)-1,2,3,6,7,8,9,10,11,13a,14,15,16,16a-tetradecahydrocyclopropa[e]pyrrolo[1,2-a][1,4]diazacyclopentadecine-14a(5H)-carboxamide]	0.24	0.29	0.31		1.9					
CC[C@@H]1C[C@]1(NC(=O)[C@@H]1C[C@@H]2CN1C(=O)[C@H](C(C)(C)C)NC(=O)OCC(C)(C)CCCCc1cccc3c1CN(C3)C(=O)O2)C(=O)NS(=O)(=O)C1CC1 [reference compound]						1.2	0.4			3900
